Data: ChEMBL document CHEMBL3774360, “Potent multitarget FAAH-COX inhibitors: Design and structure-activity relationship studies” (Eur J Med Chem, 2016)

Columns and labels:
[1] = target: Glucocorticoid receptor (Homo sapiens) (UniProt P04150); test: Binding affinity to human glucocorticoid receptor at 10 uM by radioligand binding assay
[2] = target: Thyrotropin-releasing hormone receptor (Homo sapiens) (UniProt P34981); test: Binding affinity to human TRH1 receptor at 10 uM by radioligand binding assay
[3] = target: Vasopressin V2 receptor (Homo sapiens) (UniProt P30518); test: Binding affinity to human V2 receptor at 10 uM by radioligand binding assay
[4] = system: Voltage-gated potassium channel; test: Binding affinity to voltage-gated potassium channel (unknown origin) at 10 uM by radioligand binding assay; format: protein assay; conditions: human
[5] = target: Thromboxane A2 receptor (Homo sapiens) (UniProt P21731); test: Agonist activity against human TP receptor at 10 uM
[6] = target: Secretory phospholipase A2 receptor (Homo sapiens) (UniProt Q13018); test: Binding affinity to human sPLA2 at 10 uM
[7] = target: Prostaglandin G/H synthase 1 (Homo sapiens) (UniProt P23219); test: Binding affinity to human COX1 at 10 uM
[8] = target: cGMP-dependent 3',5'-cyclic phosphodiesterase (Homo sapiens) (UniProt O00408); test: Binding affinity to human PDE2A1 at 10 uM
[9] = target: cGMP-inhibited 3',5'-cyclic phosphodiesterase 3A (Homo sapiens) (UniProt Q14432); test: Binding affinity to human PDE3A at 10 uM
[10] = target: 3',5'-cyclic-AMP phosphodiesterase 4D (Homo sapiens) (UniProt Q08499); test: Binding affinity to human PDE4D2 at 10 uM
[11] = target: Tyrosine 3-monooxygenase (Homo sapiens) (UniProt P07101); test: Binding affinity to tyrosine hydroxylase (unknown origin) at 10 uM
[12] = target: Centromere-associated protein E (Homo sapiens) (UniProt Q02224); test: Binding affinity to human CENP-E at 10 uM
[13] = target: Kinesin-like protein KIF11 (Homo sapiens) (UniProt P52732); test: Binding affinity to human Eg5 at 10 uM
[14] = target: Histone deacetylase 3 (Homo sapiens) (UniProt O15379); test: Binding affinity to human HDAC3 at 10 uM
[15] = target: Histone deacetylase 4 (Homo sapiens) (UniProt P56524); test: Binding affinity to human HDAC4 at 10 uM
[16] = target: NAD-dependent protein deacetylase sirtuin-1 (Homo sapiens) (UniProt Q96EB6); test: Inhibition of human sirtuin 1 at 10 uM; set-up: scale not given: the % may be the effect or the level left
[17] = target: Adenylate cyclase (Homo sapiens) (UniProt Q8NFM4+O60503+Q08828+P40145+O60266+O95622+O43306+Q08462+P51828); test: Activation of adenylyl cyclase (unknown origin) at 10 uM; format: protein assay
[18] = target: T1, Prostaglandin G/H synthase 1 (Ovis aries, UniProt P05979); test: Inhibition of ovine COX1 assessed as production of PGF2-alpha preincubated with compound followed by the addition of 5 uM arachidonic acid as substrate by enzyme immunoassay
T1 sequence (P05979 whole entry): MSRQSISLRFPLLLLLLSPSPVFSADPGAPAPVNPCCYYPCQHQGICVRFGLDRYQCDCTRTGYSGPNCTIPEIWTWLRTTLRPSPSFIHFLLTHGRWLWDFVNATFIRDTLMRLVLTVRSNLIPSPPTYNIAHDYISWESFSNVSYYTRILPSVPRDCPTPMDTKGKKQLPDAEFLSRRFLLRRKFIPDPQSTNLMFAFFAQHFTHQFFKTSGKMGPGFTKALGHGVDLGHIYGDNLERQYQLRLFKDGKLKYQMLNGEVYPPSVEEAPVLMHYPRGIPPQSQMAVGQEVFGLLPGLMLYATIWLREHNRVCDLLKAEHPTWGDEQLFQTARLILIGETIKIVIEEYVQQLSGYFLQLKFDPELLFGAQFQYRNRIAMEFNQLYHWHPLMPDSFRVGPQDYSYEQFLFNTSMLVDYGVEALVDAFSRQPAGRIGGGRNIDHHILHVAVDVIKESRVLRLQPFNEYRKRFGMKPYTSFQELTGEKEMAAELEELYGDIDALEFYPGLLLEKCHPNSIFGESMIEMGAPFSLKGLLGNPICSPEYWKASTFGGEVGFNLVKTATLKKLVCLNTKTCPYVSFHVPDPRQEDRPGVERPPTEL

[19] = target: Beta-1 adrenergic receptor (Homo sapiens) (UniProt P08588); test: Binding affinity to beta-1 adrenergic receptor (unknown origin) at 10 uM by radioligand binding assay
[20] = target: Calcitonin gene-related peptide 1 (Homo sapiens) (UniProt P06881); test: Binding affinity to CGRP1 (unknown origin) at 10 uM
[21] = target: Cannabinoid receptor 1 (Homo sapiens) (UniProt P21554); test: Binding affinity to human cannabinoid receptor 1 at 10 uM by radioligand binding assay
[22] = target: Gastrin/cholecystokinin type B receptor (Homo sapiens) (UniProt P32239); test: Binding affinity to human cholecystokinin receptor type B at 10 uM by radioligand binding assay
[23] = target: D(2) dopamine receptor (Homo sapiens) (UniProt P14416); test: Binding affinity to human dopamine D2S receptor at 10 uM by radioligand binding assay
Homo sapiens = species: Homo sapiens; test: Binding affinity to GABA receptor (unknown origin) at 10 uM by radioligand binding assay
[24] = target: Melanocortin receptor 4 (Homo sapiens) (UniProt P32245); test: Binding affinity to human melanocortin-4 receptor at 10 uM by radioligand binding assay
[25] = target: Opioid receptors; mu/kappa/delta (Homo sapiens) (UniProt P41145+P41143+P35372); test: Binding affinity to opioid receptor (unknown origin) at 10 uM by radioligand binding assay

D(2) dopamine receptor (Homo sapiens), sequence (P14416 whole entry): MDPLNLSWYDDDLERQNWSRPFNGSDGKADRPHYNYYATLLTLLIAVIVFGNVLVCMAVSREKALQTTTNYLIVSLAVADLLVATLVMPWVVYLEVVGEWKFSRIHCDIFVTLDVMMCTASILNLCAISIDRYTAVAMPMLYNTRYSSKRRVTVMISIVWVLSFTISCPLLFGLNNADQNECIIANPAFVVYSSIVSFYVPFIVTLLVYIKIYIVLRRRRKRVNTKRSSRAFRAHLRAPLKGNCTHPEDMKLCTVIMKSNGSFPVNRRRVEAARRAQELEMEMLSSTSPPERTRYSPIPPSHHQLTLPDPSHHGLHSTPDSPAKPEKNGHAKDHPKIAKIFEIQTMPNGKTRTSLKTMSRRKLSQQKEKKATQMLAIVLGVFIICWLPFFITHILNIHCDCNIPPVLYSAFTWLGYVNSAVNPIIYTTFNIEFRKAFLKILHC
Thyrotropin-releasing hormone receptor (Homo sapiens), sequence (P34981 whole entry): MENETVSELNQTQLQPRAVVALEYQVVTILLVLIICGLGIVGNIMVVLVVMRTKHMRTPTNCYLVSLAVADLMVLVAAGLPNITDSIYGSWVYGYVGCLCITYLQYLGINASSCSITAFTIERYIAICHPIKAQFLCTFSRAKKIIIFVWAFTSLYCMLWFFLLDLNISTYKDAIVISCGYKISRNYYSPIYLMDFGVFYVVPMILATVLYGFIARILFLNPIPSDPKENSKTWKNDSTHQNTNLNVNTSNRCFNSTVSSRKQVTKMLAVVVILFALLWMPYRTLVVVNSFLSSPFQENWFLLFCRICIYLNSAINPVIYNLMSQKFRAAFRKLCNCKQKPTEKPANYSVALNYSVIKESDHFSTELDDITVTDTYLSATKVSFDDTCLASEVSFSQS
Vasopressin V2 receptor (Homo sapiens), sequence (P30518 whole entry): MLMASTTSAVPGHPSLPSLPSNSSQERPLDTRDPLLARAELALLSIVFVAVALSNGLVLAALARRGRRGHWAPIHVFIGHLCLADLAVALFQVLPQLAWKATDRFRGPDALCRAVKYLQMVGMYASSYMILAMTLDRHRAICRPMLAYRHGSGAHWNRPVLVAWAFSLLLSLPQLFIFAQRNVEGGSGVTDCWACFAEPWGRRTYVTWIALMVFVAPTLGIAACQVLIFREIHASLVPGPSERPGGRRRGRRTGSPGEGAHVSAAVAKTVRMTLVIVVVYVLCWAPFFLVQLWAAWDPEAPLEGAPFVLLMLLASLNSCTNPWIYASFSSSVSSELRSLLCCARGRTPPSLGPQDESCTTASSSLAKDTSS
Prostaglandin G/H synthase 1 (Homo sapiens), sequence (P23219 whole entry): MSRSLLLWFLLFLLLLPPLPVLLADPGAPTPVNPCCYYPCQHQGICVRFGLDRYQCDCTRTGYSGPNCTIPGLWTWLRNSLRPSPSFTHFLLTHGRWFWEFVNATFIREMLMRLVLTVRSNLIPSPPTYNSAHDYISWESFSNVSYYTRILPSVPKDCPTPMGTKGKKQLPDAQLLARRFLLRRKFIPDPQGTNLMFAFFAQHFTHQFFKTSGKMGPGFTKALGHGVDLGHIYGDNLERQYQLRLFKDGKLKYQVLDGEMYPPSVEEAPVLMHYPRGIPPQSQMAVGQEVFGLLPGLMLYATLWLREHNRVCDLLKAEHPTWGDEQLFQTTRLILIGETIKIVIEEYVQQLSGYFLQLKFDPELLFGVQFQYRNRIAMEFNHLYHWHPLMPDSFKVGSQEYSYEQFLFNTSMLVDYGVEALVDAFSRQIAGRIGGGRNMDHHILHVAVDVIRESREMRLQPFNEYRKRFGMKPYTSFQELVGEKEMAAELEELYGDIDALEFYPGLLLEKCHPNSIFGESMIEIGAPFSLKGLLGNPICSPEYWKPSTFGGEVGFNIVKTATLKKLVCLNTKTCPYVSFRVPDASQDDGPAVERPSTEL
Secretory phospholipase A2 receptor (Homo sapiens), sequence (Q13018 whole entry): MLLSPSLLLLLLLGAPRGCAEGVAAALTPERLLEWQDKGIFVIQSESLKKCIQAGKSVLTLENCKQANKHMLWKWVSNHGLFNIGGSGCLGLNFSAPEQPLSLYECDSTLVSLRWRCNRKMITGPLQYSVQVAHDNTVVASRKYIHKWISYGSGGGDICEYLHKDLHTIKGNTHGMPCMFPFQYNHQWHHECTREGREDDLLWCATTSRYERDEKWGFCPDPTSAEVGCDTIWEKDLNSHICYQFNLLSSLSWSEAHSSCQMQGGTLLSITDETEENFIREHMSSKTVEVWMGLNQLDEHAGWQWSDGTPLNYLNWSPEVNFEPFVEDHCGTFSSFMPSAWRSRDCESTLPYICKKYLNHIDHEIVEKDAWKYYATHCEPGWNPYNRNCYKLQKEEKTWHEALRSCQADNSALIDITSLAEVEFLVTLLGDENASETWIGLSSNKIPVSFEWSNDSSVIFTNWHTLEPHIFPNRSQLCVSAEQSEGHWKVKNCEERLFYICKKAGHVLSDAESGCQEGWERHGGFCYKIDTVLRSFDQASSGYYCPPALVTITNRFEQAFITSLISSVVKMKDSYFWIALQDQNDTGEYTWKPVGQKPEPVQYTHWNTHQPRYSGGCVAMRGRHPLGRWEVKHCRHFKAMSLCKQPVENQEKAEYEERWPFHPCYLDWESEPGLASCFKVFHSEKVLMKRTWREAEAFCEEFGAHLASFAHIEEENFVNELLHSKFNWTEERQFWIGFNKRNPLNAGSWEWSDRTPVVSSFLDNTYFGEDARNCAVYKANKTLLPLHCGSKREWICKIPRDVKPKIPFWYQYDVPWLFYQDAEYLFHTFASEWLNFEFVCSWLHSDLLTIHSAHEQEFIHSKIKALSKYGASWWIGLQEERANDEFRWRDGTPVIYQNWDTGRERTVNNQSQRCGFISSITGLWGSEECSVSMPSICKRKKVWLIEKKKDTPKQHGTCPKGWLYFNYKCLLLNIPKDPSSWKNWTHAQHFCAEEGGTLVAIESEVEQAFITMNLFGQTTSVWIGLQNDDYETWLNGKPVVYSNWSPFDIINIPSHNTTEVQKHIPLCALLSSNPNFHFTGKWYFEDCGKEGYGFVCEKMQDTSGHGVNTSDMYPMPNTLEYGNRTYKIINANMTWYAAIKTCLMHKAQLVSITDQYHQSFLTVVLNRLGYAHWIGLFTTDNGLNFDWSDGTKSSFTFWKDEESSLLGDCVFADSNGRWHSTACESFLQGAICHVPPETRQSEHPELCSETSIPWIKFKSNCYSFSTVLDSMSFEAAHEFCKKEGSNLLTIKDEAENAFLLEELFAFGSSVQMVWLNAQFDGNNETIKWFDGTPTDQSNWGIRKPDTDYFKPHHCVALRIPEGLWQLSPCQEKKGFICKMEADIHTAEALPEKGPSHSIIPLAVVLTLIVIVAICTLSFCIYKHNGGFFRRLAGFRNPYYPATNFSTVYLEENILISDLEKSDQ
NAD-dependent protein deacetylase sirtuin-1 (Homo sapiens), sequence (Q96EB6 whole entry): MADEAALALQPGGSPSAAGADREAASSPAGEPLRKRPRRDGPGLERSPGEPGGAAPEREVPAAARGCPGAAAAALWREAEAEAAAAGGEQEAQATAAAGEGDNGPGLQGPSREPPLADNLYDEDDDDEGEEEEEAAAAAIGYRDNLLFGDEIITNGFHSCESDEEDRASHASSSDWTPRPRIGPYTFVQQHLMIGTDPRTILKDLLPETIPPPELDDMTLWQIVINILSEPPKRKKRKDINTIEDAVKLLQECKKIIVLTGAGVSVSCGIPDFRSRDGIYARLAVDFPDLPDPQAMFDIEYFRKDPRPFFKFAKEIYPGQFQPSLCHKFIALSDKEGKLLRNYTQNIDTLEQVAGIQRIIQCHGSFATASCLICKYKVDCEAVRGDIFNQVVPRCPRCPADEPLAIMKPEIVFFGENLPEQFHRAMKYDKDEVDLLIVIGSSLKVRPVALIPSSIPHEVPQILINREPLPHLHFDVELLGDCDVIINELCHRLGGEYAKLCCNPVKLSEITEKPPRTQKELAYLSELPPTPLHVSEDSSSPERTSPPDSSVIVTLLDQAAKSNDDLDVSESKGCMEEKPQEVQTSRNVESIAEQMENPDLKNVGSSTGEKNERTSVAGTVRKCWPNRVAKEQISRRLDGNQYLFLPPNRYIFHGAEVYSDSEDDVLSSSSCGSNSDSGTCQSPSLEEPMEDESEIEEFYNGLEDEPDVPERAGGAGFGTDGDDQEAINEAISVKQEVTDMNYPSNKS
Melanocortin receptor 4 (Homo sapiens), sequence (P32245 whole entry): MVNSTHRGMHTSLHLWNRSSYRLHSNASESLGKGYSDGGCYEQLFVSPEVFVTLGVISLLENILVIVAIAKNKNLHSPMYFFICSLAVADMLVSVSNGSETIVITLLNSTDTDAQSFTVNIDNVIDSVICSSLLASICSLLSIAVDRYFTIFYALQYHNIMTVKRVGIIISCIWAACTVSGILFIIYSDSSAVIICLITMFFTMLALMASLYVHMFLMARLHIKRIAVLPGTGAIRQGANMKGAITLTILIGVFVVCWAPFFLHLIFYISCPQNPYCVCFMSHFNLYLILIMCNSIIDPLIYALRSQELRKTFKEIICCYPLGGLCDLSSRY
Tyrosine 3-monooxygenase (Homo sapiens), sequence (P07101 whole entry): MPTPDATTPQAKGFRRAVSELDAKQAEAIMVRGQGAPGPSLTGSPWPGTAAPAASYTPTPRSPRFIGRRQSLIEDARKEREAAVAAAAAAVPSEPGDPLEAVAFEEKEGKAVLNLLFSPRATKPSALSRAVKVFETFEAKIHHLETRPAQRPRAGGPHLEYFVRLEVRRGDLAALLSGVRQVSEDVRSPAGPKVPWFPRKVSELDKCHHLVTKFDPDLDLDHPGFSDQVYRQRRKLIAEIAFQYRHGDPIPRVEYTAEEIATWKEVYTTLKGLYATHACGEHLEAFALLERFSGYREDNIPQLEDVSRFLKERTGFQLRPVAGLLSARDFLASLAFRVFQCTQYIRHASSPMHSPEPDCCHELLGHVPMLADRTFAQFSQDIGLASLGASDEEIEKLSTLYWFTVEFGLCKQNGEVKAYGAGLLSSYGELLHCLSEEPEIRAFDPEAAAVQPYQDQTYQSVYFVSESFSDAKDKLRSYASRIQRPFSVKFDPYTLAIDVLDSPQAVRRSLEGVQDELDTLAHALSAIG
Calcitonin gene-related peptide 1 (Homo sapiens), sequence (P06881 83-119 limits assumed): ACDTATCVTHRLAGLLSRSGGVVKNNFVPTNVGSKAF

In the case of `CCCCCCNC(=O)Oc1cccc(-c2ccc([C@H](C)C(=O)O)cc2F)c1`, the Activity [1] is reported as 2.3%, the Activity [2] is reported as -14.9% and the Activity [3] is reported as 4.2%. It also gave an Activity [4] of -9.9%, an Activity [5] of -3% and an Activity [6] of 0.4%. The Activity [7] was 99.2%, the Activity [8] was -1.4% and the Activity [9] was 0.3%. It also gave an Activity [10] of 0.5%, an Activity [11] of 0.8% and an Activity [12] of -3.3%. For the same molecule, the Activity [13] was 3.5%, the Activity [14] was -4.3% and the Activity [15] was -8.7%. The Activity [16] was -1.5%, the Activity [17] was 0.4% and the IC50 [18] was 0.29 nM. It also gave an Activity [19] of 5.2%, an Activity [20] of -11.7% and an Activity [21] of 38.1%. The Activity [22] was 26.5%, the Activity [23] was -5% and the Activity (Homo sapiens) was -9.5%. The Activity [24] was 0.9% and the Activity [25] was 15.5%.
